Laboratory results taken from patent publication US20260166016A1, “GPR139 RECEPTOR AGONIST, PREPARATION METHOD THEREFOR, AND APPLICATION THEREOF” (NEUBO APPTECH CO., LTD., priority 2022, published 2026).

What was measured:
acutely restrained mice = test: Pentobarbital sodium sleep test in mice under acute restraint stress; type: in vivo, mouse; details: male C57BL/6J mice; gavage of 0.1, 0.5, 2.5 mg/mL solutions at 0.1 mL/10 g; 30 minutes later acute restraint for 3 hours; pentobarbital sodium 40 mg/kg i.p.; dose-dependent; FIG. 2
Excerpt: Mouse: Male C57BL/6J; 8 weeks old; Weight: 20-25 g; Quantity: 31 pieces
Group 1, acute restraint sleeping placebo group, 7 mice, fed with regular care.
Group 2, acute restraint sleeping+low-dose of compound NRB181 group, 8 mice. The mice were fasted and deprived of water during the acute restraint period, and were kept normally at other times.
Group 3, acute restraint sleeping+moderate-dose of compound NRB181 group, 8 mice. The mice were fasted and deprived of water during the acute restraint period, and were kept normally at other times.
Group 4, acute restraint sleeping+high-dose of compound NRB181 group, 8 mice. The mice were fasted and deprived of water during the acute restraint period, and were kept normally at other times.
19.3.1 Preparation of placebo one day before the experiment: 0.5% CMC sodium+1% Tween80+saline.
On the day before the experiment, a high-dose solution of compound NRB181 was prepared: 6 mg of NRB181 was weighed and dissolved in 2.4 mL of placebo to prepare a 2.5 mg/mL solution of NRB181. Sonicated for 10 minutes and stored at 4° C. for later use.
The day before the experiment, a moderate-dose solution of compound NRB181 was prepared: […] of the above high-dose solution was taken and added to a 2 mL placebo centrifuge tube, mixed well, a 0.5 mg/mL NRB181 solution was prepared, sonicated for 10 minutes, and stored at 4° C. for later use. […]

[1] = test system: LPS induced mouse depression model; test: LPS induced mouse depression model, body weight; type: in vivo; details: male CD1 (ICR) mice; gavage 2.5 mg/mL at 0.1 mL/10 g twice daily Day 1-4; LPS i.p. Day 4; weighed Day 5; FIG. 4
Excerpt: (§1) Mice: Male Crl: CD1 (ICR) mice; 10-14 weeks old; Weight: 35-40 g; Quantity: 40 pieces
(§2) Group 1, placebo+saline group: 10 mice; divided into 2 cages, 5 mice per cage.
(§3) Group 2, placebo+lipopolysaccharide (LPS) group: 10 mice; divided into 2 cages, 5 mice per cage.
(§4) Group 3, compound NRB181+saline group: 10 mice; divided into 2 cages, 5 mice per cage.
(§5) Group 4, compound NRB181+lipopolysaccharide (LPS) group: 10 mice; divided into 2 cages, 5 mice per cage.
(§6) 21.3.1 Preparation of placebo before experiment: 0.5% CMC sodium+1% Tween80+saline. In a clean bench, 4 tubes of 40 mL placebo were prepared using pyrogen-free centrifuge tubes and ultrapure water, totaling 160 mL, ensuring the absence of endotoxins (LPS). Sterile and endotoxin free centrifuge tubes were used to divide […] of placebo into 4 mL/tube, for a total of 30 tubes, and stored at 4° C. for future use.
(§7) LPS with a purity of >98% was required 3.2 mg of LPS was accurately weighed and dissolved in 40 mL of placebo to prepare a sterile solution of 0.08 mg/mL. […]
21.3.4 On the first day of the experiment at 8:00 am, four groups of mice were randomly divided into groups, and the weight of each mouse was recorded before being placed back in their respective cages. […]
21.3.14 On the Day 5 of the experiment at 9:00 am, each group of mice was weighed and recorded, and then were returned to their home cages.

[2] = test system: LPS induced mouse depression model; test: LPS induced mouse depression model, Open Field Test; type: in vivo; details: gavage 2.5 mg/mL at 0.1 mL/10 g twice daily Day 1-4, test 6 hours after injection, FIGS. 6 and 7
Excerpt: as §1, §2, §3, §4, §5, §6, §7
21.3.13 On the afternoon of the Day 4 of the experiment, 6 hours after mice in Group 1 were injected with saline, an Open Field Test was conducted on each group starting from Group 1. Relevant parameters were recorded, and then the mice in each group were returned to their respective home cages.

[3] = test system: LPS induced mouse depression model; test: LPS induced mouse depression model, corticosterone level; type: in vivo; details: gavage 2.5 mg/mL at 0.1 mL/10 g twice daily Day 1-4, blood collected Day 5, FIG. 8
Excerpt: as §1, §2, §3, §4, §5, §6
LPS with a purity of >98% was required 3.2 mg of LPS was accurately weighed and dissolved in 40 mL of placebo to prepare a sterile solution of 0.08 mg/mL. After thorough mixing, the solution was divided into sterile and endotoxin-free centrifuge tubes, 4 mL per tube. The LPS solution needed for the next day was stored at 4° C. (3 tubes), while the rest was frozen at −20° C. for future use. […]

For `C[C@H](NC(=O)CNC(=O)c1cc(Cl)ccn1)c1c(F)cccc1F` [NRB181], the “sleep time of pentobarbital sodium anesthetized mice” value (acutely restrained mice) was “significantly increased”, the “weight loss (body weight changes)” value [1] was “significantly alleviate weight loss” and the “activity of mice in the Open Field Test (number of line crossings, total distance traveled)” value [2] was “significantly increased the activity”. For the same compound, the “expression level of corticosterone” value [3] was “significantly reduce the expression level of corticosterone”.
